Laboratory results reported in ChEMBL document CHEMBL1681782, “A novel alkaloid, aristopyridinone A and anti-inflammatory phenanthrenes isolated from Aristolochia manshuriensis” (Bioorg Med Chem Lett, 2011).
≈ marks a conversion by molar mass, not a printed value.

Tests used:
[1] = tested on: Neutrophil; assay: Ratio of Genistein IC50 to compound IC50 for inhibition of fMLP/CB-induced elastase release in human neutrophils; format: functional
[2] = tested on: Neutrophil; assay: Ratio of Genistein IC50 to compound IC50 for inhibition of fMLP/CB-induced superoxide anion generation in human neutrophils; format: functional
[3] = Antiinflammatory activity in human neutrophils assessed as inhibition of fMLP/CB-induced superoxide anion generation after 5 mins; format: functional, cell-based; settings: Neutrophil
[4] = Antiinflammatory activity in human neutrophils assessed as inhibition of fMLP/CB-induced elastase release after 5 mins; format: functional, cell-based; settings: Neutrophil

Row | Structure (SMILES) | Ratio IC50 [1] | Ratio IC50 [2] | IC50 [3] [µg/mL] | IC50 [4] [µg/mL]
1 | O=C1Nc2cc3ccc(O)cc3c3c4c(cc1c23)OCO4 | 35 | 4.5 | 0.12 (≈ 0.43 µM) | 0.2 (≈ 0.716 µM)
2 | COC(=O)c1cc2c(c3c1c([N+](=O)[O-])cc1c(OC)cccc13)OCO2 |  |  | > 10 | > 10
3 | NC(=O)c1cc2c(c3c1ccc1ccccc13)OCO2 [ARISTOLAMIDE II] |  |  | > 10 | 4.11 (≈ 15.5 µM)
4 | COc1cccc2c1ccc1c(C(N)=O)cc3c(c12)OCO3 [ARISTOLAMIDE] |  |  | > 10 | > 10
5 | COC(=O)c1cc2c(c3c1ccc1c(OC)cc(OC)cc13)OCO2 [ARISTOLIC ACID METHYL ESTER] |  |  | > 10 | > 10
6 | O=C(O)c1cc2c(c3c1c([N+](=O)[O-])cc1ccc(O)cc13)OCO2 [ARISTOLOCHIC ACID C] |  |  | > 10 | > 10
7 | COc1cccc2c1cc([N+](=O)[O-])c1c(C(=O)O)cc3c(c12)OCO3 [ARISTOLOCHIC ACID] |  |  | > 10 | > 10
8 | COc1cc(O)cc2c1cc([N+](=O)[O-])c1c(C(=O)O)cc3c(c12)OCO3 [ARISTOLOCHIC D] |  |  | 5.78 (≈ 16.2 µM) | 8.49 (≈ 23.8 µM)
9 | O=c1c(-c2ccc(O)cc2)coc2cc(O)cc(O)c12 [GENISTEIN] |  |  | 0.54 (≈ 2 µM) | 6.99 (≈ 25.9 µM)
10 | COC(=O)c1cc2c(c3c1ccc1c(OC)cccc13)OCO2 [METHYL ARISTOLATE] |  |  | > 10 | > 10
